Measurements published in patent publication US20260232658A1, “AZETIDINYL BENZOXAZOLE COMPOUNDS AND THEIR USE AS MER AND AXL INHIBITORS” (DONG-A ST CO., LTD., priority 2022, published 2026).
pIC50: −log10 of the molar value.

Assays:
TYRO3 (455-end) = biological target: T1, TYRO3 (455-end) (Homo sapiens, UniProt Q06418); assay: HTRF kinase activity biochemical assay, TYRO3; settings: recombinant kinase, 10 uM ATP, 30 minutes pre-incubation; read-out: HTRF TYRO IC50;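 note: biotinylated tyrosine kinase substrate phosphorylation detected via streptavidin-XL665 and Eu3+-cryptate anti-phospho antibody time-resolved fluorescence, read after 1 h detection at room temperature, 384-well format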
T1 construct: TYRO3 (455-end); purchased SignalChem, Canada
T1 sequence (Q06418 455-890 limits assumed): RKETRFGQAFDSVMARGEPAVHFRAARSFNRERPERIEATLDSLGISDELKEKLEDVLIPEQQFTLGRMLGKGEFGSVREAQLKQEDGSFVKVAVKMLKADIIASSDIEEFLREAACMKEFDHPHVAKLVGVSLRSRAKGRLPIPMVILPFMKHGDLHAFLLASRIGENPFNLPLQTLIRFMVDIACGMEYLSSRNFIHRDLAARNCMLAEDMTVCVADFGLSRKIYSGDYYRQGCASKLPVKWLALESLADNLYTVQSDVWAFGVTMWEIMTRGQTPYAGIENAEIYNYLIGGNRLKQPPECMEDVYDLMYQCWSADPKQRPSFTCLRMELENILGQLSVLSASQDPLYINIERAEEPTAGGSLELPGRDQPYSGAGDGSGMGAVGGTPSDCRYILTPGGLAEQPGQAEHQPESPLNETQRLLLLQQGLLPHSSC

human MER (528-end) = biological target: T2, human MER (528-end) (Homo sapiens, UniProt Q12866); assay: HTRF kinase activity biochemical assay, MER; settings: recombinant kinase, 10 uM ATP, 30 minutes pre-incubation; read-out: HTRF MERTK IC50;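 note: phosphorylation of a biotin-tagged tyrosine kinase substrate detected by Eu3+-cryptate antibody and streptavidin-XL665 time-resolved fluorescence, read after 1 h at room temperature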
T2 construct: human MER (528-end); purchased Carnabio, Japan
T2 sequence (Q12866 528-999 limits assumed): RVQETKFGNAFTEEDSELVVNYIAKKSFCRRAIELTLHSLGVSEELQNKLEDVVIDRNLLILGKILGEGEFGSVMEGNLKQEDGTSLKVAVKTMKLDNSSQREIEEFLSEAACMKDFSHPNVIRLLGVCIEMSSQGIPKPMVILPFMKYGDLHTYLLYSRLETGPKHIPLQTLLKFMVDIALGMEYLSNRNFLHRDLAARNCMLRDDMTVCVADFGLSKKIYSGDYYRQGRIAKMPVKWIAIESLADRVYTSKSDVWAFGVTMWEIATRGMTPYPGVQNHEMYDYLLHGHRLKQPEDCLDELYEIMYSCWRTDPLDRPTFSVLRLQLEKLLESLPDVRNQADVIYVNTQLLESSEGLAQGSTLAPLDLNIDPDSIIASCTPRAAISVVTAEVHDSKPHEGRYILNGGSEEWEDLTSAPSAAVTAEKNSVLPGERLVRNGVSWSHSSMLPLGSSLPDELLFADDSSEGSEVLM

human AXL (473-end) = biological target: T3, human AXL (473-end) (Homo sapiens, UniProt P30530); assay: HTRF kinase activity biochemical assay, AXL; settings: recombinant kinase, 10 uM ATP, 30 minutes pre-incubation; read-out: HTRF AXL IC50;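 note: phosphorylation of a biotinylated tyrosine kinase substrate detected via Eu3+-cryptate anti-TK antibody and streptavidin-XL665, fluorescence read after a 1 h incubation at room temperature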
T3 construct: human AXL (473-end); purchased SignalChem, Canada
T3 sequence (P30530 473-894 limits assumed): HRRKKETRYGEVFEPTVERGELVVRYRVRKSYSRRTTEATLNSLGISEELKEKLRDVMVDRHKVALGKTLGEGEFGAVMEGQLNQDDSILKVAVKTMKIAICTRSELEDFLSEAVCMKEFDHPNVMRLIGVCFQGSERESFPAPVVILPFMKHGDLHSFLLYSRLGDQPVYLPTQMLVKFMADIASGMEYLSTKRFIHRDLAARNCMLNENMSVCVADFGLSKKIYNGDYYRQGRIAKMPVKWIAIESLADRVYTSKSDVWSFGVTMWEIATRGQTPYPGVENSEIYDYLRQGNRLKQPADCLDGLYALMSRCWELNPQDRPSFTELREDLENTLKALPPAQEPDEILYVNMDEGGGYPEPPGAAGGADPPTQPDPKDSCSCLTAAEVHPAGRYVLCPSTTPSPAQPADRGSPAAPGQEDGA

Structure (SMILES)	pIC50 (TYRO3 (455-end))	pIC50 (human MER (528-end))	pIC50 (human AXL (473-end))
Cn1cc(Nc2ncc(C3CN(c4nc5ccc(OCC(C)(C)OC(=O)CN)cc5o4)C3)nc2C(N)=O)cn1 [Example 113, 1-{[2-(3-{6-carbamoyl-5-[(1-methyl-1H-pyrazol-4-yl)amino]pyrazin-2-yl}azetidin-1-yl)-1,3-benzoxazol-6-yl]oxy}-2-methylpropan-2-yl glycinate]	6.80	> 9.00	9.00
Cn1cc(Nc2ncc(C3CN(c4nc5ccc(OC[C@H]6C[C@H]6CO)cc5o4)C3)nc2C(N)=O)cn1 [Example 58, 6-[1-(6-{1[(1S,2R)-2-(hydroxymethyl)cyclopropyl]methoxy}-1,3-benzoxazol-2-yl)azetidin-3-yl]-3-[(1-methyl-1H-pyrazol-4-yl)amino]pyrazine-2-carboxamide]	7.48	> 9.00	9.00
Cn1cc(Nc2ccc(C3CN(c4nc5ccc(OCC(C)(C)OP(=O)(O)O)cc5o4)C3)nc2C(N)=O)cn1 [Example 106, 1-{[2-(3-{6-carbamoyl-5-[(1-methyl-1H-pyrazol-4-yl)amino]pyridin-2-yl}azetidin-1-yl)-1,3-benzoxazol-6-yl]oxy}-2-methylpropan-2-yl dihydrogen phosphate]	5.97	8.74	8.22
CC(C)(O)CCOc1ccc2nc(N3CC(c4cnc(Nc5cnn(C(C)(C)C)c5)c(C(N)=O)n4)C3)oc2c1 [Example 94, 3-[(1-tert-butyl-1H-pyrazol-4-yl)amino]-6-{1-[6-(3-hydroxy-3-methylbutoxy)-1,3-benzoxazol-2-yl]azetidin-3-yl}pyrazine-2-carboxamide]	6.04	> 9.00	8.52
NC(=O)c1nc(C2CN(c3nc4ccc(F)cc4o3)C2)cnc1Nc1cnn(CC(O)CO)c1 (stereo not drawn) [Example 36, 3-{[1-(2,3-dihydroxypropyl)-1H-pyrazol-4-yl]amino}-6-[1-(6-fluoro-1,3-benzoxazol-2-yl)azetidin-3-yl]pyrazine-2-carboxamide]	6.77	9.00	8.05
NC(=O)c1nc(C2CN(c3nc4ccc(F)cc4o3)C2)cnc1Nc1cnn(C2CCOCC2)c1 [Example 27, 6-[1-(6-fluoro-1,3-benzoxazol-2-yl)azetidin-3-yl]-3-{[1-(oxan-4-yl)-1H-pyrazol-4-yl]amino}pyrazine-2-carboxamide]	7.09	9.00	8.52
Cn1cc(Nc2ncc(C3CN(c4nc5ccc(OC[C@H]6COCCO6)cc5o4)C3)nc2C(N)=O)cn1 [Example 48, 6-[1-(6-{[(2R)-1,4-dioxan-2-yl]methoxy}-1,3-benzoxazol-2-yl)azetidin-3-yl]-3-[(1-methyl-1H-pyrazol-4-yl)amino]pyrazine-2-carboxamide]	6.64	8.70	8.52
Cc1ccc2nc(N3CC(c4cnc(Nc5cnn(CCO)c5)c(C(N)=O)n4)C3)oc2c1 [Example 54, 3-{[1-(2-hydroxyethyl)-1H-pyrazol-4-yl]amino}-6-[1-(6-methyl-1,3-benzoxazol-2-yl)azetidin-3-yl]pyrazine-2-carboxamide]	6.21	8.30	7.64
Cn1cc(Nc2ncc(C3CN(c4nc5ccc(OCC(C)(C)C#N)cc5o4)C3)nc2C(N)=O)cn1 [Example 107, 6-{1-[6-(2-cyano-2-methylpropoxy)-1,3-benzoxazol-2-yl]azetidin-3-yl}-3-[(1-methyl-1H-pyrazol-4-yl)amino]pyrazine-2-carboxamide]	7.34	> 9.00	8.82
COCCn1cc(Nc2ncc(C3CN(c4nc5ccc(C)cc5o4)C3)nc2C(N)=O)cn1 [Example 55, 3-{[1-(2-methoxyethyl)-1H-pyrazol-4-yl]amino}-6-[1-(6-methyl-1,3-benzoxazol-2-yl)azetidin-3-yl]pyrazine-2-carboxamide]	6.66	8.52	7.85
Cn1cc(Nc2ccc(C3CN(c4nc5ccc(OCCC(C)(C)OP(=O)(O)O)cc5o4)C3)nc2C(N)=O)cn1 [Example 109, 4-{[2-(3-{6-carbamoyl-5-[(1-methyl-1H-pyrazol-4-yl)amino]pyridin-2-yl}azetidin-1-yl)-1,3-benzoxazol-6-yl]oxy}-2-methylbutan-2-yl dihydrogen phosphate]	5.66	7.57	7.11
Cc1ccc2nc(N3CC(c4cnc(Nc5cn[nH]c5)c(C(N)=O)n4)C3)oc2c1 [Example 74, 6-[1-(6-methyl-1,3-benzoxazol-2-yl)azetidin-3-yl]-3-[(1H-pyrazol-4-yl)amino]pyrazine-2-carboxamide]	6.89	8.70	8.40
Cn1cc(Nc2ncc(C3CN(c4nc5ccc(C(C)(C)CO)cc5o4)C3)nc2C(N)=O)cn1 [Example 111, 6-{1-[6-(1-hydroxy-2-methylpropan-2-yl)-1,3-benzoxazol-2-yl]azetidin-3-yl}-3-[(1-methyl-1H-pyrazol-4-yl)amino]pyrazine-2-carboxamide]	6.19	8.30	8.22

Continued, values first:

pIC50 (TYRO3 (455-end))	pIC50 (human MER (528-end))	pIC50 (human AXL (473-end))	Structure (SMILES)
7.05	> 9.00	> 9.00	COC/C=C/c1ccc2nc(N3CC(c4cnc(Nc5cnn(C)c5)c(C(N)=O)n4)C3)oc2c1 [Example 22, 6-(1-{6-[(1E)-3-methoxyprop-1-en-1-yl]-1,3-benzoxazol-2-yl}azetidin-3-yl)-3-[(1-methyl-1H-pyrazol-4-yl)amino]pyrazine-2-carboxamide]
7.22	> 9.00	8.40	Cn1cc(Nc2ncc(C3CN(c4nc5ccc(Br)cc5o4)C3)nc2C(N)=O)cn1 [Example 6A, 6-[1-(6-bromo-1,3-benzoxazol-2-yl)azetidin-3-yl]-3-[(1-methyl-1H-pyrazol-4-yl)amino]pyrazine-2-carboxamide]
6.96	> 9.00	8.70	Cn1cc(Nc2ncc(C3CN(c4nc5ccc(OCC6(O)CCC6)cc5o4)C3)nc2C(N)=O)cn1 [Example 44, 6-(1-{6-[(1-hydroxycyclobutyl)methoxy]-1,3-benzoxazol-2-yl}azetidin-3-yl)-3-[(1-methyl-1H-pyrazol-4-yl)amino]pyrazine-2-carboxamide]
6.07	8.15	7.52	Cn1cc(Nc2ncc(C3CN(c4nc5ccc(CO)cc5o4)C3)nc2C(N)=O)cn1 [Example 16, 6-{1-[6-(hydroxymethyl)-1,3-benzoxazol-2-yl]azetidin-3-yl}-3-[(1-methyl-1H-pyrazol-4-yl)amino]pyrazine-2-carboxamide]
5.69	8.40	7.96	Cn1cc(Nc2ncc(C3CN(c4nc5ccc(OCC(=O)N6CCCC6)cc5o4)C3)nc2C(N)=O)cn1 [Example 49, 3-[(1-methyl-1H-pyrazol-4-yl)amino]-6-(1-{6-[2-oxo-2-(pyrrolidin-1-yl)ethoxy]-1,3-benzoxazol-2-yl}azetidin-3-yl)pyrazine-2-carboxamide]
< 4.90	8.52	7.70	CO[C@H]1CCN(C(=O)Cc2ccc3nc(N4CC(c5cnc(Nc6cnn(C)c6)c(C(N)=O)n5)C4)oc3c2)C1 [Example 70, 6-[1-(6-{2-[(3S)-3-methoxypyrrolidin-1-yl]-2-oxoethyl}-1,3-benzoxazol-2-yl)azetidin-3-yl]-3-[(1-methyl-1H-pyrazol-4-yl)amino]pyrazine-2-carboxamide]
5.45	8.05	7.80	CNC(=O)Cc1ccc2nc(N3CC(c4cnc(Nc5cnn(C)c5)c(C(N)=O)n4)C3)oc2c1 [Example 50, 6-(1-{6-[2-(methylamino)-2-oxoethyl]-1,3-benzoxazol-2-yl}azetidin-3-yl)-3-[(1-methyl-1H-pyrazol-4-yl)amino]pyrazine-2-carboxamide]
